The source of these data is paper PMC5444710, “Enhancement of radiosensitivity by the novel anticancer quinolone derivative vosaroxin in preclinical glioblastoma models” (Oncotarget, 2017).

In test [1] the test system is U87MG, U251, and T98G cells. Description: Autophagy: acidic vesicular organelle (AVO) staining. The following applies: RT 4 Gy, 24 hours. Format: cell-based, human. The text has this: As a marker of autophagy we evaluated the presence of AVOs after staining of cell cultures with LysoTracker® Red DND-99 kit (Life Technologies Italia, Monza, Italy) according to the manufacturer’s instructions. The intensity of the red fluorescence is proportional to the degree of acidity. The percentage of autophagic cells was quantified with the Tali® Image-Based Cytometer (Life Technologies) measuring fluorescence emission at 590 nm with fluorescence excitation at 577 nm. The results were expressed as the percentage of cell AVOs stained in controls and in treated cultures.

The next test deals with T98G xenografts. Description: Subcutaneous xenograft model: tumor weight and time to progression. Format: in vivo, female CD1-nu/nu mice. The following applies: T98G xenografts; day 35; VSR 10 mg/kg q 5 d for 5 wk IV; TMZ 16 mg/kg 5 consecutive days; RT single 4 Gy. The method, then: (§1) Female CD1-nu/nu mice, at 6 weeks of age, were purchased from Charles River (Milan, Italy) under the guidelines established by our institution (University of L’Aquila, Medical School and Science and Technology School Board Regulations, complying with Italian government regulation n.116, January 27, 1992, for the use of laboratory animals). All mice received subcutaneous flank injections (2 each) of 1 × 10^6 U251, U87MG, and T98G cells representing models for MGMT-negative and MGMT-positive cells. Tumor growth was assessed biweekly by measuring tumor diameters with a Vernier caliper (length × width). Tumor weight was calculated according to the formula tumor weight (mg) = tumor volume (mm^3) = d2 × D/2, where d and D are the shortest and longest diameters, respectively. The effects of the treatments were assessed as previously described. At about 10 days after the tumor injection, 30 mice with tumor volumes of 0.5–0.8 cm^3 were randomly divided into 6 groups (5 mice per group with 2 tumors each): (1) control (vehicle); (2) vosaroxin (10 mg/kg every 5 days for 5 weeks intravenous [IV] injection into tail vein; (3) radiotherapy (RT; 4 Gy delivered in a single fraction); (4) vosaroxin in combination with RT; (5) temozolomide (16 mg/kg 5 consecutive days) and (6) temozolomide in combination with RT. Anesthetized tumor-bearing mice received focal irradiation. Irradiation was delivered using an x-ray linear accelerator at a dose rate of 200 cGy/min at room temperature. All mice were shielded with a specially designed lead apparatus to allow irradiation to the right hind limb. At the end of the study (35 days after the start of treatments), animals were sacrificed by carbon dioxide inhalation and tumors were then removed surgically. Half of the tumor was directly frozen in liquid nitrogen for protein analysis and the other half was fixed in paraformaldehyde overnight for immunohistochemical analyses.
(§2) The following parameters were used to quantify the antitumor effects of different treatments as previously described: tumor volume, measured throughout the experiment; tumor weight, measured at the end of the experiment; tumor progression, defined as an increase of greater than 50% of tumor volume with respect to baseline; and time to progression (TTP), defined as the time until tumor progression was observed from baseline. Tumor size was measured with calipers and the TTP of a single tumor was calculated. TTP data were used to generate Kaplan-Meier curves for progression. This method of analysis was described previously, and may reduce both inter-subject variability resulting from differences in engraftment efficacy as well as intra-subject variability in response.
(§3) In vivo drug combination studies were evaluated using CalcuSyn. For CI calculations of dual administration, the values of % cell kill (%CK) for a fixed tumor volume were determined by the log CK (LCK). LCK was calculated as LCK = (T − C) / (3.32 × Td), where Td represented the mean control group doubling time required to reach a fixed tumor volume, expressed in days. T and C were the mean times in days required to reach the same fixed tumor volume in the treated group and the control group, respectively. CK was calculated as %CK = [1 − (1 − 10LCK)] × 100. Tumor growth delay (TGD) was calculated as %TGD = [(T − C) / C] × 100, where T and C were the same values as those reported by Bruzzese et al..

The test system of another test is U251 xenografts. The description is as above. The format is in vivo, female CD1-nu/nu mice. The following applies: U251 xenografts; day 35; VSR 10 mg/kg q 5 d for 5 wk IV; TMZ 16 mg/kg 5 consecutive days; RT single 4 Gy. The protocol:
as §1, §2, §3

The next test has as its system U87MG xenografts. The test is described as above. The format is in vivo, female CD1-nu/nu mice. The following applies: U87MG xenografts; day 35; VSR 10 mg/kg q 5 d for 5 wk IV; TMZ 16 mg/kg 5 consecutive days; RT single 4 Gy. The protocol:
as §1, §2, §3

Test [2] deals with luciferase-transfected U251 cells. The test can be described thus: Orthotopic intra-brain model (DFS, OS).

Where a SMILES comes first, the peptide text is derived from it. The star is where a group is joined. Cbz = O=C(OCc1ccccc1)*; CH2F = FC*

Take `Cn1cnc(N)c2ncnc1-2` [3-methyladenine]: in test [1] (5 μM), the “RT-induced AVO staining” value is given as “reduced”.

`COC(=O)C[C@H](NC(=O)[C@H](C)NC(=O)[C@@H](NC(=O)OCc1ccccc1)C(C)C)C(=O)CF` [z-Val-Ala-Asp(Ome)-fluoromethyl ketone] (Cbz-Val-Ala-Asp(OMe)-CH2F): the “RT-induced AVO staining” value in test [1] (10 μM) was “further increased”.

In the case of `Cn1nnc2c(C(N)=O)ncn2c1=O` [temozolomide], the “final tumor weight reduction compared with vehicle controls” value with T98G xenografts turned out to be 25%; in the test with U251 xenografts, 54%; in the test on U87MG xenografts, 53%. Besides, in test [2] (TMZ vs VSR), the “Disease-free Survival HR (95% CI)” value is recorded as 2.0 (0.9–5.5). Also, the “Overall Survival HR (95% CI)” value in test [2] (TMZ vs VSR) is reported as 3.0 (1.0–8.8). For the same molecule, in test [2] (orthotopic U251-luciferase, treated for 35 days starting 5 days after cell injection), the “mean time of recurrence (DFS) ± SE” value is recorded as 68.3 ± 5.4 days.
